One data set deals with T1, PR (Homo sapiens, UniProt P06401).
T1 sequence (P06401 1-933): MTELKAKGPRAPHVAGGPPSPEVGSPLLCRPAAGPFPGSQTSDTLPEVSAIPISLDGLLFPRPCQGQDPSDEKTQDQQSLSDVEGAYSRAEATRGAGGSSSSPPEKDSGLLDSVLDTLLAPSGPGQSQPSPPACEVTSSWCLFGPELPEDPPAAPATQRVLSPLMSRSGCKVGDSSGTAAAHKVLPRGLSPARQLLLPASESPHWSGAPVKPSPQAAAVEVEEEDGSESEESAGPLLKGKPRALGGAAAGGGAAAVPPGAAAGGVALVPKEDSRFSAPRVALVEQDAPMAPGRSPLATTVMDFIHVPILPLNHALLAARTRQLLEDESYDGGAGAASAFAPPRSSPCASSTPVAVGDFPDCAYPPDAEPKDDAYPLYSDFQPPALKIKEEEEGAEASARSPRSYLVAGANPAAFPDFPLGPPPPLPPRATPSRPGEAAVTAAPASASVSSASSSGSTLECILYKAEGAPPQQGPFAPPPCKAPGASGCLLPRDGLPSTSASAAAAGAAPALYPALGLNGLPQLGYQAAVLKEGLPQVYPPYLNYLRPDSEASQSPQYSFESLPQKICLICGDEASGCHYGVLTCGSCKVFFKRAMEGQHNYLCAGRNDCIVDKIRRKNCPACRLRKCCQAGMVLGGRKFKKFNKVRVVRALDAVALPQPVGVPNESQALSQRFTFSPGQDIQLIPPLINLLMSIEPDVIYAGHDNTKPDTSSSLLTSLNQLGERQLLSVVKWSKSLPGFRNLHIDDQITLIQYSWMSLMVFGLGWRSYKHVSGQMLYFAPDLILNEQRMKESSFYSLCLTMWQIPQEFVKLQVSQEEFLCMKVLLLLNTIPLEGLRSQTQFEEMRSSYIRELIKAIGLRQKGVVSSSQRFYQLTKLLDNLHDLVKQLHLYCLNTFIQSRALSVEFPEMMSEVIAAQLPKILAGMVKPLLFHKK
As to the kind of experiment: Reporter assay of gene transcription activity, PR. Format: cell-based.

For the next data set, the target named is T2, AR (Homo sapiens, UniProt P10275).
T2 sequence (P10275 1-920): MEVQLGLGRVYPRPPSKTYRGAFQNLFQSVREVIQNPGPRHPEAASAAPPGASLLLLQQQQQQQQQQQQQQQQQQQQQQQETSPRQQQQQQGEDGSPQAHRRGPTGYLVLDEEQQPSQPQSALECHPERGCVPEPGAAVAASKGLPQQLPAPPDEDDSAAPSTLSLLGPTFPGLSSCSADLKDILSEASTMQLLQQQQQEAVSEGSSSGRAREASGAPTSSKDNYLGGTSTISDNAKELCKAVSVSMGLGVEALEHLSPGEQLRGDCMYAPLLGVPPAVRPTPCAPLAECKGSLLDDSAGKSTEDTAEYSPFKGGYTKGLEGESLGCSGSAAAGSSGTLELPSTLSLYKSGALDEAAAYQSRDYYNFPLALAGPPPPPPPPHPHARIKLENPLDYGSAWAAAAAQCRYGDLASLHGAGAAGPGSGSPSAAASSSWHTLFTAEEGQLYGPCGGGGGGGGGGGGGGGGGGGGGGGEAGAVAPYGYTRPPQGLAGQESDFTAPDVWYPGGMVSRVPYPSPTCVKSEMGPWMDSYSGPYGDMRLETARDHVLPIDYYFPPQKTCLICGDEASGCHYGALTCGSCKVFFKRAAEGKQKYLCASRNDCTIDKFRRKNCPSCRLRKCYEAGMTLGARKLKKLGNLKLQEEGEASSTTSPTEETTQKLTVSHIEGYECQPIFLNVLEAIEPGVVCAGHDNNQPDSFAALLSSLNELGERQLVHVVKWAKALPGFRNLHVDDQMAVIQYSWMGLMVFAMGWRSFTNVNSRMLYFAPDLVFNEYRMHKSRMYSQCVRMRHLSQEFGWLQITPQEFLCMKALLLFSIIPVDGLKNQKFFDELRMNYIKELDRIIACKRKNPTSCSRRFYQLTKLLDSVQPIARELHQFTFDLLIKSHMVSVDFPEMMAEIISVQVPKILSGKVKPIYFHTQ
As to the kind of experiment: Reporter assay of gene transcription activity, AR. Type of data set: cell-based. Conditions: for pIC50: reporter assay. On the technique in general: Reporter assays use an easily measured gene product as a stand-in for the process of interest.

A short description of data set [1]: Single-dose pharmacokinetics, rat. Format: in vivo. Conditions: Sprague-Dawley, serum.
The target of the next data set is P-gp (Homo sapiens, UniProt P08183). As to the kind of experiment: P-gp inhibition, membrane vesicles. Format: in vitro ADME.
Sequence of P-gp (P08183 whole entry): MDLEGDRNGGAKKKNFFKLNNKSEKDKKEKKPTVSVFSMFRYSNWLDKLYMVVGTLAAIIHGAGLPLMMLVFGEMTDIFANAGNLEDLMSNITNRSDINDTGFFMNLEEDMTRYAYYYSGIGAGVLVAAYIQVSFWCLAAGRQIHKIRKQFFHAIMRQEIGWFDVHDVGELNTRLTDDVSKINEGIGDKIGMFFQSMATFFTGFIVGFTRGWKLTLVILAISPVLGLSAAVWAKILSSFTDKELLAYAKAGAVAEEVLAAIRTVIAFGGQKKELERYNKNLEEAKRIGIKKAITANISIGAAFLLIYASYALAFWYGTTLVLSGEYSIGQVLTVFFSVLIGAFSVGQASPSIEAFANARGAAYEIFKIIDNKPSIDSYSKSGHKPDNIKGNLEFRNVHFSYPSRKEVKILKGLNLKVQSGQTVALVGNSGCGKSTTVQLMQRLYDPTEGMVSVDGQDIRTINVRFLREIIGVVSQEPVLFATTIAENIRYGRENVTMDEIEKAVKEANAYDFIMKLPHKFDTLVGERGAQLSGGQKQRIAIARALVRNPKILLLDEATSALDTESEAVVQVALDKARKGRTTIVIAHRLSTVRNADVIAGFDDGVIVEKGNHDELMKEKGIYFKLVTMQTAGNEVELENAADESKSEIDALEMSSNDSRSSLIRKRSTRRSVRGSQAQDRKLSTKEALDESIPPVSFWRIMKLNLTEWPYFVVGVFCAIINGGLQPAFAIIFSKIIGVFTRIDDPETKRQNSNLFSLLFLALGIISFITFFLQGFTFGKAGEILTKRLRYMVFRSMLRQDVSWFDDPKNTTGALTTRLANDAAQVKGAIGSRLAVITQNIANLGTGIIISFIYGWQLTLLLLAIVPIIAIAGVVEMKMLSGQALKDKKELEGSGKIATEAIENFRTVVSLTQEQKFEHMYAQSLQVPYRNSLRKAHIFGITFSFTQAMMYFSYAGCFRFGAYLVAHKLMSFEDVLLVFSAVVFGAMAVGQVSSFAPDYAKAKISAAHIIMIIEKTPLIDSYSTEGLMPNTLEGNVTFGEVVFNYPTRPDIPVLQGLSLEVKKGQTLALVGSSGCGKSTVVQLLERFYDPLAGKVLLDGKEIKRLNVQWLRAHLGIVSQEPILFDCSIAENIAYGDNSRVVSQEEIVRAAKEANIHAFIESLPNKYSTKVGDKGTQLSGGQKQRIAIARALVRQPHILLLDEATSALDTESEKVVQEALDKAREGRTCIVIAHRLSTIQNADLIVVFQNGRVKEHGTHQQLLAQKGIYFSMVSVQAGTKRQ
The next data set concerns the target ERβ (Homo sapiens, UniProt Q92731). As to the kind of experiment: Reporter assay of gene transcription activity, ERβ. Format: cell-based.
A further data set concerns the target T3, ERα (Homo sapiens, UniProt P03372).
T3 sequence (P03372 1-595): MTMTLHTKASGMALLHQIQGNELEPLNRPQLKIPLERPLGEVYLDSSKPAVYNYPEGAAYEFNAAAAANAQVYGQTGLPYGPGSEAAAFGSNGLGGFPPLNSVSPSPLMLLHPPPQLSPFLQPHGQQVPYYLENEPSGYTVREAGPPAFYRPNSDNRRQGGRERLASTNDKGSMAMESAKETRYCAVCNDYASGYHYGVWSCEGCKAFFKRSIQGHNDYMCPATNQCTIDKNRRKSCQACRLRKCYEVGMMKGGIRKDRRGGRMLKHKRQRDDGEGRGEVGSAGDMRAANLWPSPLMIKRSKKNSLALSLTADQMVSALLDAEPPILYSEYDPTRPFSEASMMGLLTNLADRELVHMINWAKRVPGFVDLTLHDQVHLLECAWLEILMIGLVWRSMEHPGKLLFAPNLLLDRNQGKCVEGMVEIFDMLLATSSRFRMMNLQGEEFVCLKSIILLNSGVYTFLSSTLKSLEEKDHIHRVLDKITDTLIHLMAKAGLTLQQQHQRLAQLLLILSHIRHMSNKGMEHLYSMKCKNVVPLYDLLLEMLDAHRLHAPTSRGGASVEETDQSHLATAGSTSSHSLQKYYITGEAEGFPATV
The data set is described as follows: Reporter assay of gene transcription activity, ERα. Format: cell-based.

The target of another data set is hERG ion channels (Homo sapiens, UniProt Q12809). As to the kind of experiment: hERG patch clamp assay. Type of data set: cell-based. Conditions: at 30 μM. In general terms: The hERG channel carries a current that helps repolarise heart muscle cells.
Sequence of hERG ion channels (Q12809 whole entry): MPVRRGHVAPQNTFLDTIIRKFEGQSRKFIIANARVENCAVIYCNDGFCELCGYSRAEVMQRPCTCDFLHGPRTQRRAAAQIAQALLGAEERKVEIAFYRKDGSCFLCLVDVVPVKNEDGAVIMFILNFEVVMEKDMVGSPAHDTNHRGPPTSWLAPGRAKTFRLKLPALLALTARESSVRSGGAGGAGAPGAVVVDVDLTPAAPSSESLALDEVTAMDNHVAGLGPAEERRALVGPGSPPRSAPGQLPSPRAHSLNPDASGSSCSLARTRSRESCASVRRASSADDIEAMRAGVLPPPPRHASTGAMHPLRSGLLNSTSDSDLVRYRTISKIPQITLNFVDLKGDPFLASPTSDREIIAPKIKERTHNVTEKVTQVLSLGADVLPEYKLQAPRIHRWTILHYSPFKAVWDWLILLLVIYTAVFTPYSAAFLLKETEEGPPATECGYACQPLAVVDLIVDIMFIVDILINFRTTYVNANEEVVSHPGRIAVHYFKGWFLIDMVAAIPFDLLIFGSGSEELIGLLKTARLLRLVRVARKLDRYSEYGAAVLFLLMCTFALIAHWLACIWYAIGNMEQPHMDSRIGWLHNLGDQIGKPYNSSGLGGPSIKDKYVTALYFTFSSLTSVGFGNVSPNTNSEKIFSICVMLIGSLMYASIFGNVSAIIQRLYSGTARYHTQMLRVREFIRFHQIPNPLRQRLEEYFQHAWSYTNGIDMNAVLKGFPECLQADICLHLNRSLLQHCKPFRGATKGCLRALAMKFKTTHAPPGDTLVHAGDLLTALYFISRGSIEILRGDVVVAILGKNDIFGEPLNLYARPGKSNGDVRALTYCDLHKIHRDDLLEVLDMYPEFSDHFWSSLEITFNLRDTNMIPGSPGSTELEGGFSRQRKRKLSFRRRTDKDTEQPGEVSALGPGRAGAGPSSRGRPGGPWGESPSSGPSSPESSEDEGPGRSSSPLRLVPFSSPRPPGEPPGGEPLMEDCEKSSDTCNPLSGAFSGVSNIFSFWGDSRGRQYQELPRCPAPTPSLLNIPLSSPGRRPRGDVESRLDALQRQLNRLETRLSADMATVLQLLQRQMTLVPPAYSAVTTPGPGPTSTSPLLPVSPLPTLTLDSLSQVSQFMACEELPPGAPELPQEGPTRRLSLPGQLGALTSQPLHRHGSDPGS

pIC50: −log10 of the molar value.

Sequence of ERβ (Q92731 whole entry, species assumed): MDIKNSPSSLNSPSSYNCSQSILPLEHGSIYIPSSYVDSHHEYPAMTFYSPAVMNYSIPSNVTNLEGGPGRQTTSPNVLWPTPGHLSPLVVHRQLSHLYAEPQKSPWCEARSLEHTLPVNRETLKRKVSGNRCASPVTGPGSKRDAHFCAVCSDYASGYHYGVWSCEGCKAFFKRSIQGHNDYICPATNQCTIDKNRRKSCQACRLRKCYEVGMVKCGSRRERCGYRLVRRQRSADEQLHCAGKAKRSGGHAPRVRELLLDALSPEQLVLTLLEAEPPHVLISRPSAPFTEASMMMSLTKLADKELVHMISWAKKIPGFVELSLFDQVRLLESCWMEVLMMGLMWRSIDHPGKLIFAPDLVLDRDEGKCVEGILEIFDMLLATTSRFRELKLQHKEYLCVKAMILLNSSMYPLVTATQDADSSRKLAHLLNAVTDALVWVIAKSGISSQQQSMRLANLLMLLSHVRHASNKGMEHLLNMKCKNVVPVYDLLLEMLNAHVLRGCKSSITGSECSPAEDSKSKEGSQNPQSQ

A word on the pIC50: it is −log10 of the IC50, conventionally taken in molar units. A low value points to a large IC50. The AUC is concentration integrated over time. A low value points to low exposure. The term Cmax denotes the highest concentration seen after dosing. Usually Vd stands for the apparent volume that relates the amount in the body to the concentration in plasma or blood. As a reminder, the clearance is the rate of elimination divided by the concentration. Higher therefore signals a high capacity for elimination. As a reminder, the half-life is how long it takes for the measured level to halve. Low values mean rapid decline, high ones slow decline. In general, Tmax refers to the time from dosing to the highest level. A word on the bioavailability: it is the share of a dose that reaches the circulation, judged against a reference dose that is usually intravenous. A lower bioavailability goes with little systemic uptake. As for `CCCN1CC(Oc2ccc([C@@H]3c4[nH]c5ccccc5c4C[C@@H](C)N3CC(C)(C)F)cc2)C1` [compound 21, (1R,3R)-2-(2-Fluoro-2-methylpropyl)-3-methyl-1-(4-((1-propylazetidin-3-yl)oxy)phenyl)-2,3,4,9-tetrahydro-1H-pyrido[3,4-b]indole], the pIC50 against PR was under 5.50; on AR (AR pIC50, agonist mode, agonist mode) it was under 5.50; on AR (AR pIC50, antag. mode, antag. mode (agonist-induced activity)), 5.80; against P-gp, 5.40; at ERβ (Erβ pIC50, agonist mode, agonist mode), under 5.50; against ERβ (Erβ pIC50, antag. mode, antag. mode), 8.50. Besides, the pIC50 on ERα (ERα pIC50, agonist mode, agonist mode) was under 5.50; against ERα (ERα pIC50, antag. mode, antag. mode), 9.00. Moreover, the “agonist cross-reactivity on PR” value on PR (in words) is recorded as “no agonist cross-reactivity”. In addition, the “PR pIC50, antag. mode” value at PR (reporter assay, antag. mode) is on record as under 5.5. Also, on AR (in words), the “agonist cross-reactivity on AR” value was “no agonist cross-reactivity”. Besides, the AUC turned out to be 454 ng·h/mL in data set [1] (iv, 0.5 mg/kg) and 2590 ng·h/mL in data set [1] (po, 5 mg/kg). The Cmax came out at 313 ng/mL in data set [1] (iv, 0.5 mg/kg) and 138 ng/mL in data set [1] (po, 5 mg/kg). This compound also came in with a Vd in data set [1] (iv, 0.5 mg/kg) of 8 L/kg. In data set [1] (iv, 0.5 mg/kg), this compound showed a clearance of 13.3 mL/min/kg. For the same compound, the half-life in data set [1] (iv, 0.5 mg/kg) is 7 h; in data set [1] (po, 5 mg/kg), 16 h. The Tmax in data set [1] (po, 5 mg/kg) was 1.5 h. In data set [1] (po, 5 mg/kg), this compound had a bioavailability of 55%. For the same compound, the hERG inhibition entry on hERG ion channels is “did not inhibit”.

Source of the values: article PMC12163657 (ACS Omega, 2025).
